The values below are quoted from earlier work in patent US12357587B2, “Cannabinoid monoterpene based pharmaceutical topical composition for musculoskeletal pain” (MOUNTAIN VALLEY MD INC., priority 2022, dated 2025).

For data set [1] the following is noted: purified compound; rat chronic constriction injury.

For the compound `C=C(C)[C@@H]1CCC(C)=C[C@H]1c1c(O)cc(CCCCC)cc1O` [cannabidiol (CBD), cannabidiol], the “relief of neuropathic pain” value in data set [1] is recorded as “partially relieved neuropathic pain”.

Turning to `NC(=O)N1c2ccccc2C=Cc2ccccc21` [carbamezepine], the “decrease in white blood cell count” value (observed in 7% of patients, usually reversed within the first 4 months of therapy) is given as 25%. Also, for the setting “patients taking carbamezepine”, the “increase in the risk of blood dyscrasias” value is “five- to eight”. Also, for the setting “usually reversed within the first 4 months of therapy”, the “patients with a 25% decrease in white blood cell count” value was 7%.
